Legend:
[1] = target: T1, LTB4 Receptor (Homo sapiens, UniProt Q15722); assay: LTB4 Receptor Binding Assay ([3H]LTB4, human neutrophils); settings: 0.6×10^-9 M (3H) LTB4, human neutrophils, 0° C., 45 minutes, pH 7.4
T1 construct: Neutrophils were purified from venous blood of normal human donors; endogenous in cells; host or cells: human peripheral blood neutrophils (>95% pure, normal donors)
Experimental: Preparation of Human Neutrophils
Neutrophils were purified from venous blood of normal human donors using standard techniques of dextran sedimentation, centrifugation on Ficoll-paque® (Pharmacia) or Histopaque® sterile solution (Sigma) and hypotonic lysis of erythrocytes (Boyum, A., Isolation of Leukocytes From Human Blood: Further Observations. Scand. J. Lab. Clin. Invest., 21 (Suppl. 97): 31, 1968).
LTB4 Receptor Binding Assay
Neutrophils (4-6×10^6) in 1 ml Hanks' balanced salt solution (HBSS) containing 10 mM HEPES buffer , pH 7.4 and […] nordihydroguaiaretic acid were incubated with 0.6×10^-9 M (^3 H) LTB4 in the presence or absence of test compounds. The incubation was carried out at 0° C. for 45 minutes and terminated by adding 5 ml of ice-cold HBSS followed by rapid filtration of the incubation mixture under vacuum through GF/C glass fiber filters. The filters were further washed with 10 ml HBSS and radioactivity was determined. Specific binding was defined as the difference between total binding and nonspecific binding which was not displaced by 10^-7 M unlabeled LTB4. All data refer to specific binding.

[2] = tested on: Human neutrophils; assay: Modified Boyden Chamber Chemotaxis (LTB4-induced, human neutrophils); type: cell-based; settings: Neutrophil; 3×10^-8 M LTB4, human neutrophils, 40-90 minute incubation at 37° C., pH 7.3
Experimental: Modified Boyden Chamber Chemotaxis
Human neutrophils were isolated from citrated peripheral blood using standard techniques of dextran sedimentation, followed by centrifugation on Histopaque® sterile solution (Sigma) or Ficoll-paque® (Pharmacia) and hypotonic lysis of erythrocytes. A final cell suspension of 3.4×10^6 neutrophils/ml of HEPES-buffered Hanks' balanced salt solution (HBSS, pH 7.3) was added to the upper well (0.8 ml) of a modified Boyden chamber (blind well). The lower well (0.2 ml), separated by a polycarbonate membrane (Nucleopore Corp.), contained HBSS or 3×10^-8 M LTB4 in the presence or absence of test compound. Following a 40-90 minute incubation at 37° C. in 5% CO2 -95% air, cells from the lower well were lysed and nuclei counted in a Model S-Plus-IV Coulter Counter. The number of neutrophils migrating into the lower chamber in the absence of chemoattractant was subtracted from the number of cells migrating in the presence of a chemoattractant. Inhibition of chemotaxis by test compounds was expressed as percent inhibition relative to uninhibited control.

T1 sequence (Q15722 whole entry): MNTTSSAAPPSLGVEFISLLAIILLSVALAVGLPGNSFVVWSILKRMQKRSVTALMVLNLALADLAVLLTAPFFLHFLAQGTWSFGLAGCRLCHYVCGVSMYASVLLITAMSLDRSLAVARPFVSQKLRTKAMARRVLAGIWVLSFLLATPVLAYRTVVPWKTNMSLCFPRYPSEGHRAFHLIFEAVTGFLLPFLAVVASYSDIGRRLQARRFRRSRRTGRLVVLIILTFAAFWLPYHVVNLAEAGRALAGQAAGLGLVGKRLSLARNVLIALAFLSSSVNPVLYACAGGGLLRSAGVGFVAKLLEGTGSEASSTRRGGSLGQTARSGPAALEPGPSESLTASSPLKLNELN

SMILES | IC50 [1] [nM] | IC50 [2] [nM]
CCCc1c(OCCCOc2ccc(C(=O)NC)c(OC)c2CC2CC2)ccc2c1OC(CCC(=O)NS(=O)(=O)c1ccccc1)CC2 (stereo not drawn) [Example 5] | 2.1 | 25
CCCc1c(OCCCOc2ccc(C(=O)NC)c(OC)c2CC2CC2)ccc2c1OC(CCC(=O)NS(=O)(=O)c1ccc(C)cc1)CC2 (stereo not drawn) [Example 6] | 3.7 | 30
CCCc1c(OCCCOc2ccc(C(=O)NC)c(OC)c2CC2CC2)ccc2c1OC(CCC(=O)NS(=O)(=O)c1ccccc1C)CC2 (stereo not drawn) [Example 7] | 3 | 23

Reference: patent US5684162A, “Leukotriene B4 antagonists” (G.D. Searle & Co., priority 1996, dated 1997)
